Measured values from US20170304195A1, “PHARMACEUTICAL FORMULATIONS FOR THE ORAL DELIVERY OF PEPTIDE OR PROTEIN DRUGS” (Cyprumed GmbH, priority 2014, published 2017).
Where a name gives a salt, the structure may show the parent alone.

Legend:
[1] = In vitro compatibility of absorption enhancers with zinc sulfate (Example 16); type: physicochemical; conditions: absorption enhancer 10 mg/ml with desmopressin acetate and ZnSO4 5 mg/ml, in 2 ml aqua purificata, visual examination
Description: Solid dry powder mixtures of desmopressin acetate, zinc sulfate and different absorption enhancers were prepared and dissolved in 2 ml aqua purificata.

[2] = pH of dissolved solid powder mixtures (Example 17); type: physicochemical; conditions: lactose 50 mg, no buffer
[3] = Compatibility of absorption enhancers with Cu2+ and Cu+ salts (dissolution in aqueous medium); type: physicochemical; conditions: absorption enhancer 10 mg/ml
Source text: Various absorption enhancers were screened regarding their compatibility with the trace element copper in the two main oxidation states as Cu^2+ and Cu^+.

[4] = Plasma liraglutide levels after mid-jejunum administration (Example 6, FIG. 1); type: in vivo, Sprague Dawley rats
Description: FIG. 1: Plasma liraglutide levels after intestinal (mid-jejunum) administration of different liraglutide formulations to rats (see Example 6).
Administration into Mid-Jejunum in Rats:
The wound margins were released from the base.
Dosing was performed slowly.
Correctness of the application was checked.
2.4 mg/kg of the polypeptide liraglutide were dosed into the mid-jejunum of anesthetized Sprague Dawley rats in the presence of the zwitter-ionic absorption enhancer lauroyl carnitine chloride (“LCC”) (20 mg/ml) with and without the addition of (i) the trace element CuSO4 (1 mg/ml) and the reducing agent sodium ascorbate (40 mg/ml) or (ii) the trace element ZnSO4 (1 mg/ml) and the reducing agent glutathione (40 mg/ml). All formulations further comprised Na2HPO4 to result in a neutral pH between 7 to 8.

[5] = Octreotide pharmacokinetics after s.c. or ileum administration (Example 9); type: in vivo, Sprague Dawley rats; conditions: for AUC(0-t): read-out: AUC(0-90) (converted)
Description: TRIS buffer was used to generate a neutral pH.
The octreotide plasma concentrations were determined using a commercial octreotide kit (AB Biolabs, USA, cat. number CEK 0110-01).

[6] = background statement, unformulated drug; cited from earlier work
[7] = Vancomycin pharmacokinetics after i.v. or ileum administration (Example 5); type: in vivo, Sprague Dawley rats; conditions: for AUC(0-t) / Cmax: anesthetized rats
Description: The vancomycin plasma concentrations were determined on biochemical autoanalyser Hitachi 912 using commercial vancomycin kit VANC2 (Roche Diagnostics GmbH, Germany). The absolute bioavailability (F) was calculated using equation F (%)=(AUCileum/AUCi.v.)×(Dosei.v./Doseileum)×100.

[8] = Human growth hormone formulation, pharmacokinetics after s.c. or ileum administration (Example 13); type: in vivo, Sprague Dawley rats
Description: The human growth hormone plasma concentrations were determined using commercial growth hormone sensitive human ELISA kit (Biovendor, EU, cat. number RMEE022).

[9] = CuSO4 1 mg/ml, sodium ascorbate 10 mg/ml
[10] = Sprague Dawley, rat, plasma, other: into distal small intestine (ileum), octreotide 0.92 mg/kg ileum (n = 8), lauroyl carnitine chloride 30 mg/ml, CuSO4 1 mg/ml, sodium ascorbate 30 mg/ml, TRIS 22.5 mg/ml
[11] = Sprague Dawley, rat, plasma, sc, octreotide 1 mg/kg s.c., anesthetized rats (n = 3)
[12] = Cu(I)Cl 1 mg/ml, sodium ascorbate 10 mg/ml
[13] = copper (I) acetate 1 mg/ml, sodium ascorbate 10 mg/ml
[14] = Sprague Dawley, rat, plasma, iv, vancomycin 5 mg/kg i.v.
[15] = Sprague Dawley, rat, plasma, vancomycin 20 mg/kg into ileum, lauroyl carnitine 50 mg/ml, CuSO4 1 mg/ml, sodium ascorbate 250 mg/ml
[16] = s.c. 1 ml/kg, 0.2 mg/ml human growth hormone, anaesthetized rats

C[C@H](CCC(=O)O)[C@H]1CC[C@H]2[C@@H]3[C@H](O)C[C@@H]4C[C@H](O)CC[C@]4(C)[C@H]3C[C@H](O)[C@]12C [Cholic acid]
Dissolution in aqueous medium (2 ml) [1]: Precipitation

NC(=O)CC[C@@H]1NC(=O)[C@H](Cc2ccccc2)NC(=O)[C@H](Cc2ccc(O)cc2)NC(=O)CCSSC[C@@H](C(=O)N2CCC[C@H]2C(=O)N[C@H](CCCN=C(N)N)C(=O)NCC(N)=O)NC(=O)[C@H](CC(N)=O)NC1=O [Desmopressin, Desmopressin acetate]
Dissolution pH in 5 ml Aqua purificata ([2]; CuSO4 10 mg, citric acid 10 mg): 2.6
Dissolution pH in 5 ml Aqua purificata ([2]; CuSO4 10 mg, no absorption enhancer): 4.7
Dissolution pH in 5 ml Aqua purificata ([2]; ZnSO4 10 mg, citric acid 10 mg): 2.7
Dissolution pH in 5 ml Aqua purificata ([2]; ZnSO4 10 mg, no absorption enhancer): 5.5

O=C(O)CN(CCN(CC(=O)O)CC(=O)O)CC(=O)O [EDTA, ethylenediaminetetraacetic acid]
Dissolution in aqueous medium (2 ml) [1]: Clear solution
Dissolution in aqueous medium (2 ml) [3, 9]: Clear solution

CCCCCCCCCCCC(=O)OC(CC(=O)O)C[N+](C)(C)C.[Cl-] (stereo not drawn) [Lauroyl carnitine HCl]
Dissolution in aqueous medium (2 ml) [1]: Clear solution

CCCCCCCCCCCC(=O)OC(CC(=O)O)C[N+](C)(C)C.[Cl-] (stereo not drawn) [Lauroyl carnitine]
Dissolution in aqueous medium (2 ml) ([3]; CuSO4 1 mg/ml, glutathione 10 mg/ml): Clear solution
Dissolution in aqueous medium (2 ml) [3, 9]: Clear solution

CCCCCCCCCCCCCCCC(=O)N[C@@H](CCC(=O)NCCCC[C@H](NC(=O)[C@H](C)NC(=O)[C@H](C)NC(=O)[C@H](CCC(N)=O)NC(=O)CNC(=O)[C@H](CCC(=O)O)NC(=O)[C@H](CC(C)C)NC(=O)[C@H](Cc1ccc(O)cc1)NC(=O)[C@H](CO)NC(=O)[C@H](CO)NC(=O)[C@@H](NC(=O)[C@H](CC(=O)O)NC(=O)[C@H](CO)NC(=O)[C@@H](NC(=O)[C@H](Cc1ccccc1)NC(=O)[C@@H](NC(=O)CNC(=O)[C@H](CCC(=O)O)NC(=O)[C@H](C)NC(=O)[C@@H](N)Cc1cnc[nH]1)[C@@H](C)O)[C@@H](C)O)C(C)C)C(=O)N[C@@H](CCC(=O)O)C(=O)N[C@@H](Cc1ccccc1)C(=O)N[C@H](C(=O)N[C@@H](C)C(=O)N[C@@H](Cc1c[nH]c2ccccc12)C(=O)N[C@@H](CC(C)C)C(=O)N[C@H](C(=O)N[C@@H](CCCNC(=N)N)C(=O)NCC(=O)N[C@@H](CCCNC(=N)N)C(=O)NCC(=O)O)C(C)C)[C@@H](C)CC)C(=O)O [Liraglutide, liraglutide]
intestinal absorption of liraglutide (plasma levels, FIG. 1), in words ([4]; LCC 20 mg/ml + CuSO4 1 mg/ml + sodium ascorbate 40 mg/ml, compared with LCC alone): substantially increased the intestinal absorption
liraglutide absorption (plasma levels, FIG. 1), in words ([4]; LCC 20 mg/ml + ZnSO4 1 mg/ml + glutathione 40 mg/ml, compared with LCC alone and with the Cu2+ composition): improved liraglutide absorption albeit less pronounced

C[C@@H](O)[C@@H]1NC(=O)[C@H](CCCCN)NC(=O)[C@@H](Cc2c[nH]c3ccccc23)NC(=O)[C@H](Cc2ccccc2)NC(=O)[C@@H](NC(=O)[C@H](N)Cc2ccccc2)CSSC[C@@H](C(=O)N[C@H](CO)[C@@H](C)O)NC1=O [Octreotide]
Cmax [5, 10]: 25.8 ± 14.2 ng/mL
AUC(0-t) [5, 10]: 25.1 ng·h/mL
Cmax [5, 11]: 154 ± 29.8 ng/mL
AUC(0-t) [5, 11]: 167 ng·h/mL
F rel ([5]; Sprague Dawley, rat, plasma, octreotide 0.92 mg/kg ileum, lauroyl carnitine chloride 30 mg/ml, CuSO4 1 mg/ml, sodium ascorbate 30 mg/ml, TRIS 22.5 mg/ml, vs s.c.): 16.3 ± 7.8%
F ([5]; octreotide 1 mg/kg s.c. (reference)): 100 ± 18.3%
bioavailability, in words ([5]; octreotide formulation with copper(II) salt, sodium ascorbate, lauroyl carnitine chloride): markedly increased bioavailability
oral bioavailability [6]: less than 1%

CCCCCCCCCC(=O)[O-].[Na+] [Sodium caprate]
Dissolution in aqueous medium (2 ml) [1]: Precipitation
Dissolution in aqueous medium (2 ml) [3, 12]: Clear solution
Dissolution in aqueous medium (2 ml) [3, 9]: Precipitation
Dissolution in aqueous medium (2 ml) [3, 13]: Clear solution

CCCCCCCC(=O)[O-].[Na+] [Sodium caprylate]
Dissolution in aqueous medium (2 ml) [1]: Precipitation
Dissolution in aqueous medium (2 ml) [3, 12]: Clear solution
Dissolution in aqueous medium (2 ml) [3, 9]: Precipitation
Dissolution in aqueous medium (2 ml) [3, 13]: Clear solution

C[C@H](CCC(=O)[O-])[C@H]1CC[C@H]2[C@@H]3[C@H](O)C[C@@H]4C[C@H](O)CC[C@]4(C)[C@H]3C[C@H](O)[C@]12C.[Na+] [Sodium cholate]
Dissolution in aqueous medium (2 ml) [1]: Precipitation

O=C([O-])CC(O)(CC(=O)[O-])C(=O)[O-].[Na+].[Na+].[Na+] [Sodium citrate]
Dissolution in aqueous medium (2 ml) [3, 9]: Clear solution

CCCCCCCCCCCCOS(=O)(=O)[O-].[Na+] [Sodium dodecyl sulfate]
Dissolution in aqueous medium (2 ml) [1]: Clear solution
Dissolution in aqueous medium (2 ml) [3, 9]: Clear solution

O=C([O-])c1ccccc1O.[Na+] [Sodium salicylate]
Dissolution in aqueous medium (2 ml) [3, 9]: Clear solution

CN[C@H](CC(C)C)C(=O)N[C@H]1C(=O)N[C@@H](CC(N)=O)C(=O)N[C@H]2C(=O)N[C@H]3C(=O)N[C@H](C(=O)N[C@H](C(=O)O)c4cc(O)cc(O)c4-c4cc3ccc4O)[C@H](O)c3ccc(c(Cl)c3)Oc3cc2cc(c3O[C@@H]2O[C@H](CO)[C@@H](O)[C@H](O)[C@H]2O[C@H]2C[C@](C)(N)[C@H](O)[C@H](C)O2)Oc2ccc(cc2Cl)[C@H]1O [Vancomycin, Vancomycin hydrochloride]
oral bioavailability [6]: ~0.1%
AUC(0-t) [7, 14]: 11000 ng·h/mL
Cmax [7, 14]: 8800 ± 300 ng/mL
AUC(0-t) [7, 15]: 3000 ng·h/mL
Cmax [7, 15]: 2400 ± 200 ng/mL
bioavailability ([7]; Sprague Dawley, rat, plasma, vancomycin 20 mg/kg into ileum, lauroyl carnitine 50 mg/ml, CuSO4 1 mg/ml, sodium ascorbate 250 mg/ml, vs i.v., read-out: F (absolute bioavailability)): 8 ± 0.4%
F ([7]; vancomycin 5 mg/kg i.v. (reference)): 100 ± 7%
bioavailability in comparison with published F values after oral administration, in words ([7]; vancomycin formulation with lauroyl carnitine, CuSO4, sodium ascorbate): increased markedly its bioavailability

CCCCCCCCCCCCO[C@@H]1O[C@H](CO)[C@@H](O[C@H]2O[C@H](CO)[C@@H](O)[C@H](O)[C@H]2O)[C@H](O)[C@H]1O [n-Dodecyl-beta-D-maltoside]
Dissolution in aqueous medium (2 ml) [1]: Clear solution
Dissolution in aqueous medium (2 ml) [3, 9]: Clear solution

CCCCCCCCO[C@@H]1O[C@H](CO)[C@@H](O)[C@H](O)[C@H]1O [n-Octyl-beta-D-glucopyranoside]
Dissolution in aqueous medium (2 ml) [1]: Clear solution
Dissolution in aqueous medium (2 ml) [3, 9]: Clear solution

Human growth hormone [hGH]
AUC(0-t) [8, 16]: 7630 ± 471 ng·min/mL
Cmax [8, 16]: 44 ng/mL
Tmax [8, 16]: 30 min
F ([8]; s.c. (reference)): 100 ± 6%

Methyl-beta-cyclodextrin
Dissolution in aqueous medium (2 ml) [3, 9]: Clear solution

Sodium lauroyl sarcosinate
Dissolution in aqueous medium (2 ml) [3, 9]: Precipitation
